Data set [1] in a line: Herbicide degradation in outdoor tanks with coastal seawater and sediment (330 d). The settings on record: day 330, in tank of the parent herbicide, measured or estimated. The format is physicochemical. The text has this:
Photosystem II herbicides/transformation product solutions were produced by adding herbicides to seawater within separate 120 l outdoor fibreglass tanks, in the presence of natural coastal sediments (further details can be found in Mercurio 2016)[36]. […] The tanks used were previously described in Mercurio et al.[8], with treatment water being partially shaded (70%) and exposed to a maximum of 700 µmol photons m^−2s^−1 over the course of the experiment. The application of a natural diurnal light regime and coastal sediment were previously shown to increase the rates of PSII herbicide degradation and represent more natural conditions than those used in standard degradation tests[8],[36]. Evaporation was minimised with loose-fitting clear acrylic lids and the water continuously circulated using Turbelle Nanostream pumps. Prior to every sampling period evaporation losses were replenished with equal volumes of MilliQ water. The average temperature was 25.7 °C with a range of 15.6–36.6 °C over the course of the study. Unfiltered coastal seawater and sediments were collected from the intertidal zone adjacent to the Australian Institute of Marine Science (19°16′S, 147°03′E), Cape Cleveland, QLD. The sediments were prepared one week prior to use by sieving (>2 mm removed) and thorough mixing. Each tank contained 5 kg of sediment. Physical and chemical information on the seawater and sediments used the treatments can be found in SOM Table 1.
The 20 tanks included replicates for control seawater (n = 4) and the PSII herbicides diuron (n = 4), atrazine (n = 3), simazine (n = 3), hexazinone (n = 3), and ametryn (n = 3). Herbicide treatments and replicates were randomized among tanks. The herbicides were purchased from Sigma Aldrich (>95% purity) and were introduced at ~1 mg l^−1 to enable direct chemical and toxicological testing of the herbicide transformation product mixtures without additional concentration steps. […] The same concentration was used in the controls. Sample collection, internal standard addition, and analytical techniques (HPLC-MS/MS using an AB/Sciex API5500Q mass spectrometer equipped with an electrospray interface and coupled to a Shimadzu Prominence HPLC system) were as previously reported[7],[36]. […] Individual replicates were analysed using HPLC/TripleTOF mass spectrometry for possible transformation products as described in Mercurio 2016[36]. Briefly, 0.2 µm-filtered samples were directly injected into an ABSciex API5600+ Triple TOF mass spectrometer (ABSciex, Concord, Ontario, Canada) equipped with an electrospray (TurboV) interface coupled to a Shimadzu Nexera HPLC system (Shimadzu Corp., Kyoto, Japan). Separation was achieved using a 4 micron 50 × 2.0 mm Phenomenex Synergi Fusion RP column (Phenomenex, Torrance, CA) run at 45 °C, and a flow rate of 0.4 mL min^−1 with a linear gradient starting at 8% B for 0.5 minutes, ramped to 100% B in 8 minutes then held at 100% for 2.0 minutes followed by equilibration at 8% B for 2.5 minutes (A = 1% methanol in HPLC grade water, B = 95% methanol in HPLC grade water, both containing 0.1% acetic acid). The mass spectrometer was operated in positive ion SWATH mode. Briefly this mode comprises a TOF scan of 50 millisecond duration followed by small segments of the mass range being transmitted through the quadrupole, fragmented in the collision cell and full TOF mass spectra taken of the transformation products. Data from these experiments was examined using the Masterview software (ABSciex).
Potential transformation products identified using TOF mass spectrometry and other potential transformation products identified from literature were then re-examined by HPLC/ triple quadrupole mass spectrometry using multiple reaction monitoring. Product ions used were as identified from QTOF data or from literature references and parameters such as collision energy optimised by repeated injections of samples for compounds detected. […]

The subject of a further data set is Symbiodinium sp. The data set can be described thus: Microalgal PAM fluorometry assay, inhibition of ∆F/Fm′ (24 h, 96-well plate). The format is cell-based. The settings on record: for LOEC, effect on ∆F/Fm′ / NOEC, effect on ∆F/Fm′: pure transformation product, ANOVA p < 0.05. The source says:
Microalgae play a critical role in the marine food web and have been used in a number of sensitive assays for the assessment of toxicity of both herbicides and their transformation products[13],[16],[60]. High throughput 96 well plate designs allow for increased replication and a wide range of concentrations especially when paired with pulse amplitude modulation (PAM) fluorometry[50],[61]. PAM fluorometry measures chlorophyll fluorescence and can be used to calculate inhibitions of effective quantum yield ∆F/Fm′, which is proportional to reduced photosynthetic efficiency[62] and growth in microalgae[63] and can be plotted against toxicant concentrations to derive concentrations that inhibit ∆F/Fm′ by 10, 20 and 50% (IC10, IC20 and IC50). In the present study the green algae (Dunaliella sp.) and coral symbiont (Symbiodinium sp.) were exposed to herbicides and aged herbicide solutions for 24 h in a 96-well plate format. A Maxi-Imaging-PAM (I-PAM) (Walz, GmbH Germany) was used to measure inhibition of ∆F/Fm′ using settings provided previously[36] and below.
Symbiodinium cells were isolated from coral by air blasting branches of Acropora tenuis colonies collected (collected under the permit G10-33440.1) at 2–5 m depth in Nelly Bay, Magnetic Island, GBR[36]. Symbiodinium cells were inoculated into sterile IMK growing media, the culture purified, DNA extracted, and Clade C1 identified as published previously[64],[65]. Cultures were maintained at 26 °C, 60 µE PAR, 14:10 light:dark photoperiod inside environmental chambers (Steridium e500). The Dunaliella sp. (CS-353) (Chlorophyceae) was obtained from the CSIRO Collection of Living Microalgae (CCLM). The algae was subcultured and grown in F2 media. For the toxicology assays, an exponentially growing culture was employed[63] and density adjusted by hemocytometry under 10× magnification. Day 7 sub-cultures were used throughout the experiment.
Herbicide solutions were delivered into each treatment plate using a Perkin Elmer Janus liquid handling system. Each well of the black 96-well plates (Perkin Elmer) received 100 µl herbicide solution as well as 100 µl of algal suspension (added via multi-channel pipette) and the solution was gently mixed. […] Each plate included a 3 µg l^−1 positive diuron control (n = 4) to confirm consistent sensitivities among the replicate algal subcultures. Treatments positions were randomised across the plates in duplicate[50],[61],[66]. Symbiodinium culture plates were incubated over a 12:12 h light:dark cycle at 26 °C and 60–70 µmol photons m^−2 s^−1 and Dunaliella sp. Plates incubated at: 26 °C and 130 µmol photons m^−2 s^−1. Microalgae were exposed for 24 h prior to PAM measurements. Samples were subjected to the 50 µmol photons m^−2 s^−1 actinic light for 1 min prior to measurement in the Maxi-IPAM (Actinic light = 1, ML = 10, ML frequency = 8, gain = 2 and damping = 1).
The model was constrained by applying a lower limit of 0% inhibition and all curves were tested for normality of the residuals and a replicate test was applied to assess the goodness of fit[36]. The probability that ICX values generated by the logistic curves were statistically different between parent and aged herbicide solutions was tested by applying the F test in Graph Pad Prism v6. ICXs were considered different when p < 0.05. Where inhibition data could not be fitted to logistic curves, one-way analysis of variance (ANOVA) was performed to identify treatments which caused significant (p < 0.05) inhibition comparison with control treatments (NCSS v9, Utah, USA). The larval prawn experimental data was arcsine square root transformed prior to statistical analysis.

Results on three compounds are retold here after publication PMC5859250, “Contribution of transformation products towards the total herbicide toxicity to tropical marine organisms” (Scientific Reports, 2018).

Converted amounts (≈) assume the structure as drawn. “Also recorded” adds a separate entry of the source. Some results are limits rather than exact numbers.

Consider `CC(C)Nc1nc(N)nc(Cl)n1` [DEA, desethylatrazine], for which, in data set [1], the Transformation product concentration is 36 µg/L. Further, the IC20 in the data set with Symbiodinium sp. (24 h, read-out: IC20 parent (inhibition of ∆F/Fm′ by 20%)) amounted to 0.218 µg/mL (≈ 1.16 µM). For the same compound, in the data set with Symbiodinium sp. (Symbiodinium sp., 24 h, pure compound), the “IC10 parent (inhibition of ∆F/Fm′ by 10%)” value was 103 (93–115) µg l^−1. The “Inhibition of ∆F/Fm′” value in the data set with Symbiodinium sp. (Symbiodinium sp., evident at 84 µg l^−1) was 9–35%. Moreover, in the data set with Symbiodinium sp. (Symbiodinium sp.), the “LOEC, effect on ∆F/Fm′” value was 83.68 µg/L and the “NOEC, effect on ∆F/Fm′” value was found to be 55.63 µg/L.
Consider `CCNc1nc(N)nc(Cl)n1` [DIA, desisopropylatrazine], for which, in data set [1] (listed as Desisopropyl Atrazine), the Transformation product concentration is 5.1 µg/L. The “Inhibition of ∆F/Fm′” value in the data set with Symbiodinium sp. (Symbiodinium sp., 458 µg l^−1) is below 8%. Moreover, in the data set with Symbiodinium sp. (Symbiodinium sp.), the “LOEC, effect on ∆F/Fm′” value was above 458.31 µg/L and the “NOEC, effect on ∆F/Fm′” value turned out to be 458.31 µg/L.
As for `Nc1ccc(Cl)c(Cl)c1` [3,4-DCA, 3,4-dichloroaniline], the Transformation product concentration in data set [1] was 2.1 µg/L. Also, the “Inhibition of ∆F/Fm′ (in words)” value in the data set on Symbiodinium sp. (Symbiodinium sp., concentrations up to 273 µg l^−1) is “no significant inhibition; also recorded: did not inhibit ∆F/Fm′”. Besides, in the data set with Symbiodinium sp. (Symbiodinium sp.), the “LOEC, effect on ∆F/Fm′” value is above 273.41 µg/L and the “NOEC, effect on ∆F/Fm′” value came to 273.41 µg/L.
